In patent US12648948B2, “Methods and compositions for treating cancer” (UNITED STATES GOVERNMENT AS REPRESENTED BY THE DEPARTMENT …, priority 2017, dated 2026):

Legend:
[1] = system: JNK-Axl-ERK signaling pathway; test: Western blot, erlotinib-induced JNK-Axl-ERK signaling pathway in glioma cells; assay type: cell-based, human; conditions: GBM9, GBM39 neurospheres and U87EGFRwt cells
Description: Western blot analysis was performed according to standard protocols.

[2] = system: GBM9 and GBM39 neurospheres; test: AlamarBlue cell viability assay, patient derived GBM neurospheres; assay type: cell-based, human; conditions: 72 h; for Cell viability, inhibitor combined with erlotinib: erlotinib 100 nM, SP600125, U0126, R428, thalidomide 1 μM, Enbrel 100 nM; for Cell viability, inhibitor alone: without erlotinib, 1 μM
Description: (§1) Cell viability assay was conducted using AlamarBlue cell viability assay kit (ThermoFisher) following manufacturer's protocol. Cells were cultured in Corning 96-well black plates with clear bottom (5000 cells/well). Drugs were added to cells for 72 hour following detection using POLARstar Omega Microplate Reader (excitation at 544 nm and emission at 590 nm) (BMG LABTECH, Germany).

[3] = system: U87EGFRwt and U87EGFRvIII cells; test: AlamarBlue cell viability assay, established GBM cell lines; assay type: cell-based, human; conditions: established GBM cell lines, 72 h; for Cell viability, inhibitor alone: without erlotinib
Description: as §1

GBM9 cells = test: Annexin-FACS assay and Caspase 3/7 activation; assay type: cell-based, human; conditions: GBM9 cells, 72 h, Annexin-FACS
Description: Annexin assay was performed by using Annexin—V-FLUOS Staining kit (Roche applied Science). Cells (1×10^6) were plated in 6 well plates and treated with drugs or vehicle alone. After 72 hours cells were trypsinized and washed 2 times with 1×PBS. The cells were incubated for 15 minutes at room temperature with Propidium Iodide and Annexin—V-FLUOS labeling solution in incubation buffer. Annexin and/or PI positive cells were detected by Flow Cytometry.
Caspase activity in the supernatant was measured using the Caspase-Glo 3/7 Assay (Promega, G8091) following manufacturer's instructions. Briefly, 72 hours after treatments, cells were washed by cold PBS and total cell lysates were prepared. 50 μg of total protein per sample was added per well of a 96 well plate and was incubated with 100 μl Caspase 3/7 reagent for 30 minutes. The luminescence of each sample was measured using a luminometer. All experiments included at least 3 replicates per group and were repeated 3 times.

GBM = conditions: cited from earlier work
[4] = system: primary embryonic cultures and differentiated PC12 cells; conditions: at dosages that inhibit activation of JNKs, after trophic withdrawal; cited from earlier work
TNF = TNF mRNA (qRT-PCR) and TNF ELISA in glioma cells; assay type: cell-based, human; conditions: GBM9 and U87EGFRwt, thalidomide 1 μM
Description: Total RNA was isolated by TRIzol Reagent (Ambion). cDNA Reverse Transcription were performed by using High-Capacity cDNA Reverse Transcription Kit (Applied Biosystems). PCR primers were synthesized by IDT (Coralville, IA). Each PCR was carried out in triplicate in a 20 μl volume using SYBR Green Master Mix (Applied Biosystems) for 15 minutes at 95° C. for initial denaturing, followed by 40 cycles of 95° C. for 15 s and 60° C. for 60 s in ViiA 7 Real-Time PCR System (Applied Biosystems). At least two independent experiments were done. Values for each gene were normalized to expression levels of GAPDH mRNA.
2×10^6 cells were incubated in serum-free or EGF free medium containing different concentrations of erlotinib or DMSO. After 48 hours, supernatant and cell lysates were collected. Supernatant medium was concentrated 5-10-fold with Pierce protein concentrator (ThermoFisher). TNF protein concentration in supernatant, cell lysates and tissue extracts was determined by ELISA using a commercial TNF detection kit (ThermoFisher) according to manufacturer's instructions. Additionally, GAS6 protein concentration in supernatant was measured by ELISA kit (LifeSpan BioSciences).

[5] = system: JNK-Axl-ERK signaling axis; test: Signal transduction in intracranial GBM9 tumors (Western blot, IHC); assay type: in vivo, mice; conditions: thalidomide given with erlotinib
Description: To detect the in vivo levels of TNF, 1×10^6 GBM9 cells were injected into the right flanks of nude mice. When the subcutaneous tumor reached a volume of around 200 mm^3, the mice were treated with erlotinib to monitor the upregulation of TNF protein. The animals were dosed consecutively for 1, 2, 7 or 14 days and then sacrificed. The animals without treatment were considered as control (0-day treatment). Tumor tissues were rinsed in PBS and protein was extracted to analyze the TNF levels using ELISA and also used for western blot. To detect the protein expression in mice brain tumor tissues upon drug treatment, the same procedure was performed in orthotopic models. Additionally, with orthotopic models, mice were divided into four groups (control gavage group, erlotinib group, thalidomide group and erlotinib plus thalidomide, n=3). After 48 hours treatment tumors were harvested and subjected to Western blot and immunostaining.
Tumors from nude mice brains were fixed in 10% formalin and embedded in paraffin. Paraffin-embedded sections were cut at five-micrometer thickness. Immunohistochemical staining was performed using the ABC streptavidin-biotin method with the Vectastain ABC kit (Vector Laboratories, Burlingame, CA, USA) according to the manufacturer's protocol. Briefly, after deparaffinization and rehydration, endogenous peroxidase activity was quenched by a 10 min incubation in 3% H2O2. For antigen retrieval, the tissue sections were boiled in 10 mM sodium citrate buffer (pH 6.0) for 20 minutes. Binding of primary anti-pERK (1:100, Cell Signaling Technology, 4376) or anti-pJNK antibody (1:200, Cell signaling Technology, 4668) or anti-pAXL(1:400, R&D, AF2228) was carried out overnight at 4° C. The signal was detected by using the Sigmafast 3,3′-Diaminobenzidine tablets (DAB; Sigma, St. Louis MO). The sections were counterstained lightly with hematoxylin. The IHC staining intensity was scored semiquantitatively as: 0=No positive staining; 1=1-25% tumor cells stained, 2=26%-75% tumor cells stained and 3=>75% tumor cells stained.

GBM9 subcutaneous tumors = test: Subcutaneous GBM9 xenograft tumor growth; assay type: in vivo, athymic nude mice; conditions: erlotinib 50 mg/kg oral gavage, SP600125 40 mg/kg i.p., thalidomide 150 mg/kg i.p., daily for 10 days
Description: 4 to 6 weeks old female athymic nude mice were purchased from Charles River Laboratories. The mice were housed in plastic cages (4-5 mice per cage) in a room with a 12 hour day-night cycle. 1×10^6 GBM9 cells were subcutaneously injected into the right flank of each nude mouse. […] The mice were randomly divided into control and treatment groups, mice were treated with drugs using the indicated doses. For combination treatment, both drugs were given concurrently for indicated periods. Tumor dimensions were measured by caliper every two days and tumor volumes calculated by the formula: volume=length×width×width/2. Mice were sacrificed when tumors reached over […] or 24 days from the first day of treatment.

[6] = mouse, in vivo
GBM9 intracranial tumors = test: Orthotopic (intracranial) GBM9 model, survival and bioluminescence imaging; conditions: erlotinib 50 mg/kg oral gavage and/or thalidomide 150 mg/kg i.p., 10 days; repeated with afatinib
Description: For the orthotropic model, 1×10^5 GBM9 cells expressing firefly luciferase were injected into the right corpus striatum of the brains of 6-8-week-old nude mice using a stereotactic frame. […] The mice were treated with erlotinib 50 mg/kg by oral gavage and/or intraperitoneal (i.p.) injection of 150 mg/kg thalidomide for 10 consecutive days. Bioluminescence imaging (BLI) was performed to record the growth of tumor every 5 days. Kaplan-Maier survival curves were calculated using GraphPad Prism 7.0 software. Mice were monitored and sacrificed when neurological signs appeared or after 40 days.

EGFR = test: Western blot, EGFR activation in U87EGFRwt cells; assay type: cell-based, human; conditions: serum starved, cetuximab overnight, EGF 50 ng/ml 15 min
ERK = test: Western blot, ERK activation (pERK) in glioma cells; conditions: U87EGFRwt cells, serum starved; cetuximab overnight; EGF 50 ng/ml 15 min
Description: Western blot analysis was performed according to standard protocols. In all experiments, before the addition of EGF or erlotinib established cells were cultured overnight in serum free DMEM and primary GBM neurospheres were EGF starved overnight. Cells not treated with EGF or erlotinib were also serum or EGF starved.

[7] = single-arm phase II trial, GBM patients at first recurrence

Etanercept
Erlotinib-induced activation of the JNK-Axl-ERK signaling pathway in presence of TNF inhibitor [1]: interruption of the erlotinib-induced activation of the JNK-Axl-ERK signaling pathway
Cell viability, inhibitor combined with erlotinib [2]: sensitive to the effects of EGFR inhibition
Cell viability, inhibitor combined with erlotinib [3]: sensitive to the effects of EGFR inhibition
Number of viable (unstained) cells, inhibitor combined with erlotinib (GBM9 cells): decreases the number of viable cells

COc1cc2ncnc(Nc3ccc(F)c(Cl)c3)c2cc1OCCCN1CCOCC1 [gefitinib]
Median overall survival (OS) (GBM; [7]): about 39 weeks
Radiographic responses (GBM; [7]): No radiographic responses

CCSCc1ccc2c(c1)c1c3c(c4c5cc(CSCC)ccc5n5c4c1n2[C@H]1C[C@](O)(C(=O)OC)[C@]5(C)O1)CNC3=O [CEP-1347]
Neuronal survival [4]: promotes neuronal survival

O=C1CCC(N2C(=O)c3ccccc3C2=O)C(=O)N1 (stereo not shown) [thalidomide]
Erlotinib-induced increase in TNF secretion in presence of thalidomide (TNF): block the erlotinib-induced increase in TNF secretion
Erlotinib-induced activation of the JNK-Axl-ERK signaling pathway in presence of TNF inhibitor [1]: interruption of the erlotinib-induced activation of the JNK-Axl-ERK signaling pathway
Cell viability, thalidomide combined with afatinib ([2]; afatinib 100 nM, thalidomide 1 μM): sensitizes
Cell viability, inhibitor combined with erlotinib [2]: had the same effect
Cell viability, inhibitor combined with erlotinib [3]: had the same effect
Number of viable (unstained) cells, inhibitor combined with erlotinib (GBM9 cells): decreases the number of viable cells
JNK-Axl-ERK signaling axis in intracranial tumors (Western blot) ([5]; erlotinib 50 mg/kg): blocked the EGFR inhibition induced upregulation of the TNF-JNK-Axl-ERK signaling axis
pAxl, pJNK and pERK immunostaining of brain sections ([5]; orthotopic model): inhibits erlotinib induced pAxl-pJNK-pERK activation
Growth of subcutaneous tumors (GBM9 subcutaneous tumors): no significant effect on the growth of tumors
Body weight of orthotopic models [6]: Body weight losses
Clinical efficacy in GBM patients (GBM; human, in vivo): without success
Survival of mice (GBM9 intracranial tumors): neither erlotinib nor thalidomide alone had a significant effect

Nc1nc(Nc2ccc3c(c2)CC[C@@H](N2CCCC2)CC3)nn1-c1cc2c(nn1)-c1ccccc1CCC2 [R428]
Cell viability, inhibitor combined with erlotinib [2]: sensitive to erlotinib
Cell viability, inhibitor alone [2]: does not affect the viability of these cells
Cell viability, inhibitor combined with erlotinib [3]: sensitive to erlotinib
Cell viability, inhibitor alone [3]: does not affect the viability of these cells
Number of viable (unstained) cells, inhibitor combined with erlotinib (GBM9 cells): decreases the number of viable cells

N#CC(=C(/N)Sc1ccccc1N)/C(C#N)=C(\N)Sc1ccccc1N [U0126]
Cell viability, inhibitor combined with erlotinib [2]: significant cell death
Cell viability, inhibitor alone [2]: resistant to JNK or ERK inhibition alone
Cell viability, inhibitor combined with erlotinib [3]: a combined inhibition of EGFR with ERK or JNK leads to a significant cell death
Cell viability, inhibitor alone [3]: also resistant to EGFR inhibition or JNK inhibition or ERK inhibition alone
Number of viable (unstained) cells, inhibitor combined with erlotinib (GBM9 cells): decreases the number of viable cells

EGF: Recombinant human EGF from Peprotech
Basal EGFR activation (EGFR): further increases in EGFR and ERK activation
Basal ERK activation (ERK): further increases in EGFR and ERK activation
